Data on 4 compounds can be found in patent publication US5866617A, “Formulations and methods of use 2,2'-dithio-bis-esthane sulfonate” (BioNumerik Pharmaceuticals, Inc., priority 1997, dated 1999).

One data set deals with cancer patients. Conditions: cited from earlier work.
For data set [1], the system named is Fischer rats. The data set is described as follows: Protection against cisplatin induced nephrotoxicity in Fischer rats (day 5 serum creatinine and BUN). The format is in vivo. Here is the method:
FIG. 1. Serum Creatinine Values on Day 5 Post Treatment with i.v. Cisplatin (6 mg/kg) With or Without Increasing Doses of i.v. 2,2'-Dithio-Bis-Ethane Sulfonate (BNP7787).
FIG. 2. Serum BUN (Blood Urea Nitrogen) Values on Day 5 Post Treatment with i.v. Cisplatin (6 mg/kg) With or Without Increasing Doses of i.v. 2,2'-Dithio-Bis-Ethane Sulfonate (BNP7787).
(§1) The data from these studies are shown below in FIGS. 1 and 2. Under Good Laboratory Practice (GLP) conditions, Fischer rats (10 rats per treatment group) were treated with or without escalating doses of BNP7787 (up to 1000 mg/kg) administered by i.v. injection with a nephrotoxic dose of cisplatin (6 mg/kg). Serum BUN (FIG. 2) and Creatinine (FIG. 1) values were measured on day 5 and the animals were weighed daily. […] The mean day 5 WBC levels of rats treated with higher doses of 2,2'-dithio-bis-ethane sulfonate, namely the 333 mg/kg and 1,000 mg/kg treatment groups, are approximately 6,800 and 6,200, respectively. These mean WBC values are within 15% of the WBC values for untreated controls. The day 5 mean WBC counts for the cisplatin only and low dose (37 mg/kg) 2,2'-dithio-bis-ethane sulfonate treatment groups are approximately 4,800 and 4,500, respectively and represent a 32% to 36% reduction in the day 5 mean WBC from the untreated control group. The Fischer rat model is highly correlated with cisplatin induced nephrotoxicity in humans and is thus an excellent animal model to support the utility of 2,2'-dithio-bis-ethane sulfonate to protect against cisplatin induced nephrotoxicity in humans.

For data set [2], the system named is Fischer rats. The data set is described as follows: Protection against cisplatin induced myelosuppression in Fischer rats (day 5 WBC). Format: in vivo. The settings on record: for deviation of mean WBC from untreated controls: day 5. The protocol: FIG. 3. Total WBC Values on Day 5 Post Treatment with i.v. Cisplatin (6 mg/kg) With or Without Increasing Doses of i.v. 2,2'-Dithio-Bis-Ethane Sulfonate (BNP7787).
as §1

Another data set concerns WARD colon cancer. The data set is described as follows: Antitumor activity in Fischer rats bearing subcutaneous WARD colon cancer. The format is in vivo.
Data set [3] is described as follows: Body weight change in tumor bearing Fischer rats. The protocol:
FIG. 4. Weight Change in Tumor Bearing Fischer Rats Treated with Parenteral Cisplatin (6 mg/kg or 9 mg/kg) and 2,2'-Dithio-Bis-Ethane Sulfonate (BNP7787 @ 1,000 mg/kg).
The antitumor activity and toxicity, as measured by weight changes estimated by changes in tumor volumes and animal weights, respectively, of escalating doses of parenterally (intravenously) administered cisplatin (6 mg/kg and 9 mg/kg) with or without substantially contemporaneously intravenously administered BNP7787 (1000 mg/kg) was investigated in Fischer rats bearing subcutaneous established (~3.0 g) WARD colon cancer.

A short description of data set [4]: Stability of 2,2'-dithio-bis-ethane sulfonate in acidic and basic aqueous media (proton NMR). Format: physicochemical. Here is the method: The stability of 2,2'-dithio-bis-ethane sulfonate at room temperature was determined at pH ranges of 1.5 to 9.0.
The stability of 2,2'-dithio-bis-ethane sulfonate in acidic and basic aqueous media can be studied as described in this example. In a typical experiment, 50 mg of 2,2'-dithio-bis-ethane sulfonate (as produced by using the above described method) was dissolved in one ml of water and the pH of the solution adjusted to 1.5, 2.0, 3.0, 4.0, 5.0 and 6.0 by adding 1N hydrochloric acid in water or the pH adjusted to 8.0, 9.0, 10.0 or 11.0 by adding 1N sodium hydroxide in water. The reaction mixture was then stirred for 24 hours at room temperature, the water was removed at reduced pressure, dissolved in spectral grade D2 O, and the proton NMR spectrum was recorded.
The stability of 2,2'-dithio-bis-ethane sulfonate at pH 1.5 is further studied by heating the reaction mixture to 100 degrees Celsius for 10 minutes.

Data set [5] in a line: Solubility in sterile water and 0.9% sodium chloride solution, pH 7.15 (tyndall effect). The format is physicochemical. Conditions: water and 0.9% nacl, read-out: concentrations at which soluble. Here is the method: 1 ml of 0.9% sodium chloride solution was then distributed in each of a second set of six sterilized 10 ml vials. The 0.9% sodium chloride solution was obtained by dissolving 9 mg of USP grade sodium chloride in sterile HPLC grade water using an agitator.

Another data set can be described thus: physchem. Conditions: water.
The conditions of data set [6]: rat, in vivo, iv, 180 min; cited from earlier work.
The conditions of data set [7]: human, in vivo, cited from earlier work.
For data set [8] the following is noted: in vivo; cited from earlier work.
The test system of another data set is rats. The settings on record: single i.p. dose of 3 mg cisplatin/kg, cited from earlier work.
Setting [9] is: BNP7787 37 mg/kg with cisplatin 6 mg/kg.
Setting [10] is: BNP7787 333 mg/kg with cisplatin 6 mg/kg.
Setting [11] is: BNP7787 1,000 mg/kg with cisplatin 6 mg/kg.
Setting [12] is: BNP7787 1000 mg/kg i.v. with cisplatin 6 mg/kg and 9 mg/kg.

Procedure for WARD colon cancer: Antitumor Response of Tumor Bearing Fischer Rats Treated with Parenteral Cisplatin (6 mg/kg or 9 mg/kg) and 2,2'-Dithio-Bis-Ethane Sulfonate (BNP7787 @ 1000 mg/kg).
Procedure for physchem: In this example, 10 grams of the disodium salt of 2,2'-dithio-bis-ethane sulfonate was dissolved in 50 ml of sterile HPLC grade water and the pH of the solution was readjusted to a pH of 7.0 using 1N hydrochloric acid. The resulting solution was then passed through a 0.2 micron syringe filter into an autoclaved round bottom flask (250 ml). This sterile solution was then freeze dried (lyophilized) to a white crystalline powder. The lyophilized powder was then used for the following solubility studies.
1 ml of sterile HPLC grade water was distributed in each of ten sterilized 10 ml vials. […] Each vial was first observed at room temperature for a period of approximately 15 minutes, and then heated to a temperature of 37° C. for a period of at least 15 minutes.

In the case of `O=S(O)(O)=S` [thiosulfates, sodium thiosulfate], the “increase of cisplatin dose per meter square that could be administered intraperitoneally” value in the data set with cancer patients (thiosulfates by intravenous infusion) was “more than two fold”. The “renal toxicity of intraperitoneal cisplatin” value in the data set on cancer patients (thiosulfates by the intravenous route) is on record as “renal toxicity could be prevented”.

As to `O=S(=O)([O-])CCSSCCS(=O)(=O)[O-].[Na+].[Na+]`, in the data set on Fischer rats [1] (BNP7787 37 mg/kg with cisplatin 6 mg/kg i.v.), the “nephrotoxicity (plasma BUN and creatinine levels and histopathology) relative to cisplatin only” value is listed as “slight increase in nephrotoxicity”. Also, the “renal protection (day 5 creatinine and BUN)” value in the data set on Fischer rats [1] (BNP7787 333 mg/kg i.v. with cisplatin 6 mg/kg i.v.) and in the data set with Fischer rats [1] (BNP7787 1000 mg/kg i.v. with cisplatin 6 mg/kg i.v.) was 100% throughout. In the data set with Fischer rats [1] (escalating i.v. doses up to 1000 mg/kg with cisplatin 6 mg/kg), the “dose-response effect in renal protection” value is listed as “clear dose-response effect”. Moreover, the entries for the “mean day 5 WBC” value in the data set on Fischer rats [2] (setting [9]), in the data set with Fischer rats [2] (setting [10]) and with Fischer rats [2] (setting [11]) were ~4,500, “approximately 6,800” and ~6,200, respectively. Moreover, in the data set on Fischer rats [2] (setting [9]), the “reduction in day 5 mean WBC from the untreated control group” value came to 36%. The “deviation of mean WBC from untreated controls” value with Fischer rats [2] (setting [10]) and in the data set on Fischer rats [2] (setting [11]) was at most 15% in each case. For the same compound, the “protective effect against cisplatin induced myelosuppression (WBC)” value with Fischer rats [2] (escalating BNP7787 doses with cisplatin 6 mg/kg) is reported as “dose-dependent protective effect”. Also, in the data set on WARD colon cancer (BNP7787 1000 mg/kg i.v. with cisplatin 6 mg/kg or 9 mg/kg), the “potentiation of cisplatin antitumor activity” value is reported as “potentiation of cisplatin antitumor activity”. In the data set with WARD colon cancer (BNP7787 without cisplatin), the intrinsic antitumor activity result is “lacks intrinsic antitumor activity”. Also, the “median tumor weight at maximum reduction (from 3,000 mg)” value in the data set on WARD colon cancer (cisplatin 6 mg/kg immediately followed by BNP7787 1,000 mg/kg i.v.) is recorded as “less than 300 mg”; in the data set on WARD colon cancer (cisplatin 9 mg/kg immediately followed by BNP7787 1,000 mg/kg i.v.), below 100 mg. The “effect on antitumor activity of cisplatin (abrogation)” value with WARD colon cancer (substantially contemporaneous administration with cisplatin) is given as “does not abrogate the antitumor activity of cisplatin”. Besides, the “mean weights compared with all other treatment groups” value in data set [3] (setting [12]) is recorded as “greater mean weights than all other treatment groups”. The “protection against renal damage as measured by weight loss” value in [3] (setting [12]) is given as “clearly protective against renal damage”. In [4] (pH 1.5, 100 degrees Celsius, 10 minutes), the “change in proton spectrum on heating” value is “No change in the proton spectrum”. Besides, the “pH range in which stable” value in [4] (room temperature, 24 hours, listed as 2,2'-dithio-bis-ethane sulfonate) was 1.0-11.0. Besides, the solubility in [5] was in the range of 100 to 320 mg/mL; in “physchem”, 10.5 to 102 mg/mL.

`O=S(=O)([O-])CCS.[Na+]`: the “administered dose recovered in the urine” value in data set [6] is on record as “over 80%”. Besides, the “dose appearing as thiol groups in the urine” value in data set [7] (iv, 20 mg/kg) was “about 48%”. Also, in data set [7] (po), the “dose excreted in the urine as reactive thiol groups” value is on record as “approximately 52%”. The “minimum concentration presumed to still be protective” value in [7] was 100 µg/mL. In addition, the “administered mesna dose found in the urine in the form of mesna (reactive thiol)” value in data set [8] is reported as “approximately 45%”. Besides, in the data set with rats (low doses of mesna), the “protection of kidneys from renal damage” value is “only partially protected”. Further, the “prevention of renal damage” value in the data set with rats (per os mesna) is given as “complete prevention of renal damage”.

Take `N.N.[Cl][Pt][Cl]` [cisplatin, cis-diammine dichloro platinum, reference compound]: in the data set with Fischer rats [2] (cisplatin only 6 mg/kg), the “mean day 5 WBC” value was “approximately 4,800” and the “reduction in day 5 mean WBC from the untreated control group” value is 32%. For the same compound, the “median tumor weight at maximum reduction (from 3,000 mg)” value with WARD colon cancer (cisplatin only 6 mg/kg i.v.) is 700 mg. Further, in the data set on WARD colon cancer (cisplatin only 9 mg/kg i.v.), the “median tumor weight at maximum reduction (from 3,000 mg)” value is recorded as 500 mg. Also, in data set [3] (cisplatin alone, 6 mg/kg and 9 mg/kg, at 6 days), the “loss of body weight” value is recorded as “up to 8%”.
